Legend:
breast carcinoma 4T1 = system: breast carcinoma 4T1
Procedure: In the examples below, the MRI scanner Bruker BioSpec BC70/30 USR with the constant field of 7.05 T, equipped with a surface transmitting-and-receiving coil with a diameter of 3 cm and a scan depth of ca. 1 cm was used.
To register deuterium image the FLASH (Fast low angle shot) pulse sequence was used.
For experiments with the broadband excitation the following settings were used: the excitation frequency was determined by ^2H NMR spectrum and was sfo1≈46.1745 MHz, a rectangular excitation pulse with a width of 1300 Hz and a power of 36 dB, the flip angle FA=30°, the repetition time TR=11.8 MS, echo time TE=4.4 msec, a scan area of 10 cm×10 cm, scan matrix, 50×50, slice thickness 3 cm, bandwidth of 12500 Hz, total scan time 10 minutes (1030 averages).
In this example, experiments were conducted on mice Balb/c inoculated with breast carcinoma 4T1 (injection of 5×10^5 cells/60 μl under the left front paw for 10 days before experiment) and in healthy Balb/c mice.
A solution of 20-72 mg of 3-O-CD3-glucose was administered to an animal weighing 20 g was injected intraperitoneally, intravenously or via gavage (intraperitoneal: 0.5 ml of a saline solution; intravenous: 0.2 ml of water; oral: 0.25 ml of a saline solution). After injection, the animal was kept in a separate cage with free access to food and water within specified time. For imaging the animal was immobilized with isoflurane. The surface transmitting-and-receiving coil was fixed on the body of the mouse from the dorsal side in the thoracic region.

tumor = assay: Preliminary 2H MRI tumor visualization experiments with glucose derivatives; type: in vivo
Excerpt: The authors of this invention have studied various derivatives of glucose as a potential diagnostic agent. It was discovered that not all glucose derivatives can be used for the diagnostics of oncological diseases through ^2H MRI or ^2H NMR.

SMILES	accumulation in tumor by 2H MRI after intravenous injection (breast carcinoma 4T1; 20 mg intravenous, 50 minutes, mouse no. 3 (FIG. 9))	location of agent by 2H MRI after oral administration, late (breast carcinoma 4T1; 70 mg oral, 100 min (text: 115 min), mouse no. 4 (FIG. 10))	accumulation in tumor visualized by 2H MRI (breast carcinoma 4T1; 72 mg intraperitoneal, 20-320 min after administration, mouse no. 2 (FIGS. 5-8))	2H MRI signal in control mouse without tumors (breast carcinoma 4T1; 72 mg intraperitoneal, 40 minutes after administration, mouse no. 1)	valid range of the diagnostic agent doses (breast carcinoma 4T1; mouse, FIGS. 5-9)	tumor visualization by 2H MRI (tumor)
[2H]C([2H])([2H])O[C@H]1[C@H](O)[C@@H](CO)OC(O)[C@@H]1O (stereo partly drawn) [3-O-CD3-glucose]	accumulation of 3-O-CD3-glucose in the tumor	accumulated in tumors	accumulated in the tumor in sufficient concentration to be visualized	missing an area with a strong signal of deuterium	1-3.5 g per 1 kg of animal weight	–
OCC1OC(O)C(O)C(O)C1O (stereo not drawn) [6,6-D2-glucose]	–	–	–	–	–	not possible to accurately visualize the tumor

— patent US12115232B2, “Preparation for magnetic resonance diagnostics for oncological diseases, comprising deuterated 3-O-methylglucose, and diagnostic method using said preparation” (SOLVEX LIMITED LIABILITY COMPANY, priority 2017, dated 2024)
